In US9187468B2, “Topical ocular analgesic agents” (Novartis AG, priority 2013, dated 2015):
One block for each molecule: values may come before it.

What was measured:
[1] = system: formalin-induced blinking in rats; assay: Formalin blink test (topical ocular analgesia); format: in vivo; settings: rat
Method: Formalin was prepared at 0.1% final in 0.9% saline from a stock of 10% neutral buffered formalin (Sigma-Aldrich, St. Louis, Mo.). […] The structure of Compound A is.
All compounds were formulated in a 10% hydroxypropyl-β-cyclodextrin (HPβCD) 1×PBS vehicle. Compounds were prepared as 1% stock solutions in absolute ethanol. An appropriate amount of the stock solution was transferred to a glass vial from which the solvent was evaporated, then the compound was re-suspended in appropriate volumes of vehicle and ball-milled overnight at 4° C. All compounds were tested at 0.01%, 0.1%, 0.3%, and 1% w/v, unless otherwise noted. Alcaine® (Alcon Laboratories, Fort Worth, Tex.) was used as a reference compound.
Rats were dosed with 5 μL, of formalin vehicle (0.9% sterile saline) in OS eye. After a 5-second acclimation period, blinks were counted for one minute. Test compound or vehicle was dosed (5 μL) on OD eye. At 5 minutes after test compound treatment (unless otherwise noted), 0.1% formalin was dosed in the OD eye. Blinks were counted in the same manner as the OS eye.
The efficacy data for these compounds are plotted in FIGS. 1, 3, 4, and 5, with % inhibition of formalin-induced blink rate indicated above the bar for each tested concentration.

[2] = system: nylon fiber ocular surface touching-induced blinking in rats; assay: Cochet-Bonnet esthesiometry test (anesthetic activity); format: in vivo; settings: rat, topical ocular; for anesthesia in Cochet-Bonnet esthesiometry test: concentration range that afforded efficacious analgesia in the formalin blink test
Method: Cochet-Bonnet Esthesiometry Test
For the Cochet-Bonnet esthesiometry test that measures anesthetic activity, whiskers were trimmed from test animals or vehicle animals. OD eye of animal was dosed with 5 μL of test compound or vehicle. The animal was restrained in a clear plastic cone (DecapiCone®, Alcon Laboratories, Fort Worth, Tex.) which was trimmed as necessary to allow access to the OD eye. Five minutes after application of test compound, a Cochet-Bonnet esthesiometer, with a nylon monofilament diameter of 0.12 mm and length of 40 mm (0.8 g/mm^2), was applied perpendicularly to the central cornea of the OD eye 10 times. This test was performed three times on each animal within 2 minutes. Data were expressed as the mean number of blinks elicited from 10 stimuli.

[3] = system: rat spinal ligation model of neuropathic pain; settings: orally dosed at 10 mg/kg, comparators at 3-10 times higher doses; cited from earlier work

Compound: CCCCCN1C(=O)C2(COc3cc4c(cc32)OCO4)c2ccccc21 (stereo not drawn) [Compound A, 1′-pentyl-6H-spiro[[1,3]dioxolo[4,5-f]benzofuran-7,3′-indolin]-2′-one]
- % reduction of formalin-induced blink rate ([1]; 0.1% w/v dose): 27%

- anesthetic effect (touch-induced blinking) ([2]; 0.1% and 0.2% doses): elicited significant anesthesia
- anesthesia in Cochet-Bonnet esthesiometry test [2]: profound anesthesia
Compound: Fc1cccc(Cn2ccc3c(OC4CCN(Cc5cscn5)CC4)ncnc32)c1F [Compound C]
- dose dependence of analgesic efficacy ([1]; 0.01-0.2% w/v): dose-related increase in efficacy
- maximum efficacy (% inhibition of formalin-induced blink rate) ([1]; top tested dose of 0.01-0.2% w/v range): 61%

- anesthesia in Cochet-Bonnet esthesiometry test [2]: did not elicit observable anesthesia
Compound: CC(=O)Nc1cccc(Nc2ncnc(N3CCC(OCc4ccc(OC(F)(F)F)cc4)CC3)n2)c1C [Compound 1]
- maximum efficacy as topical ocular analgesic compared to Compounds A and B ([1]; FIG. 1 vs FIGS. 3 and 4): more efficacious
- potency as topical ocular analgesic compared to Compounds A and B ([1]; FIG. 1 vs FIGS. 3 and 4): significantly more potent
- % reduction of formalin-induced blink rate vs vehicle ([1]; drug concentrations ≧0.05% w/v (tested 0.01%-0.3% w/v)): > 50%
- anesthetic effect (touch-induced blinking) compared to vehicle ([2]; drug concentrations up to 0.3% w/v (0.05-0.3%)): did not elicit a statistically significant anesthetic effect

Compound: NC(=O)c1nc(-c2cccc(-c3ccccc3OC(F)(F)F)c2)cs1 [Compound B, 4-(2′-(trifluoromethoxy)-[1,1′-biphenyl]-3-yl)thiazole-2-carboxamide]
- % reduction of formalin-induced blink rate ([1]; 0.01% w/v dose): no effect
- % reduction of formalin-induced blink rate ([1]; 0.1% w/v dose): no effect
- % reduction of formalin-induced blink rate ([1]; 0.3% w/v dose): ~40%
- % reduction of formalin-induced blink rate ([1]; 1% w/v dose): ~40%
- therapeutic efficacy vs mexiletene, lamotrigene and carbamazepine [3]: significantly more therapeutically efficacious
